Source: the supplement of paper PMC10307832

Tests used:
Assay in all cases: relative viability (nuclei count vs DMSO), 5 days (fraction); higher = more cells survive
[1] = compound: C=CCn1c(=O)c2cnc(Nc3ccc(N4CCN(C)CC4)cc3)nc2n1-c1cccc(C(C)(C)O)n1 [Adavosertib] + CC(=O)c1c(C)c2cnc(Nc3ccc(N4CCNCC4)cn3)nc2n(C2CCCC2)c1=O [Palbociclib] (partner 0.5 µM)
Procedure, shortened: (§1)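 Dosing by pin tool came one day after lung cancer cell lines were seeded in 1536-well plates, using either one drug or a fixed anchor-drug dose plus five library-drug doses (not always all listed) in √10 steps. After 5 days, nuclei were counted on 4× images. Relative viability is treated-well nuclei count divided by vehicle-well nuclei count, and values are medians of duplicate plates.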

Nelarabine + Decitabine = compound: COc1nc(N)nc2c1ncn2[C@@H]1O[C@H](CO)[C@@H](O)[C@@H]1O [Nelarabine] + Nc1ncn([C@H]2C[C@H](O)[C@@H](CO)O2)c(=O)n1 [Decitabine] (partner 2 µM)
Procedure, shortened: as §1

Nelarabine + Alpelisib = compound: COc1nc(N)nc2c1ncn2[C@@H]1O[C@H](CO)[C@@H](O)[C@@H]1O [Nelarabine] + Cc1nc(NC(=O)N2CCC[C@H]2C(N)=O)sc1-c1ccnc(C(C)(C)C(F)(F)F)c1 [Alpelisib] (partner 2 µM)
Procedure, shortened: as §1

Adavosertib + Pemetrexed = compound: C=CCn1c(=O)c2cnc(Nc3ccc(N4CCN(C)CC4)cc3)nc2n1-c1cccc(C(C)(C)O)n1 [Adavosertib] + Nc1nc2[nH]cc(CCc3ccc(C(=O)N[C@@H](CCC(=O)O)C(=O)O)cc3)c2c(=O)[nH]1 [Pemetrexed] (partner 0.2 µM)
Procedure, shortened: as §1

Row | Cell Line | relative viability ([1]; first compound 0.01 µM) | relative viability ([1]; first compound 0.03162 µM) | relative viability ([1]; first compound 0.1 µM) | relative viability ([1]; first compound 0.3162 µM) | relative viability (Nelarabine + Decitabine; first compound 0.01 µM) | relative viability (Nelarabine + Decitabine; first compound 0.03162 µM) | relative viability (Nelarabine + Decitabine; first compound 0.1 µM) | relative viability (Nelarabine + Decitabine; first compound 0.3162 µM) | relative viability (Nelarabine + Decitabine; first compound 1 µM) | relative viability (Nelarabine + Alpelisib; first compound 0.01 µM) | relative viability (Nelarabine + Alpelisib; first compound 0.03162 µM) | relative viability (Nelarabine + Alpelisib; first compound 0.1 µM) | relative viability (Nelarabine + Alpelisib; first compound 0.3162 µM) | relative viability (Nelarabine + Alpelisib; first compound 1 µM) | relative viability (Adavosertib + Pemetrexed; first compound 0.01 µM) | relative viability (Adavosertib + Pemetrexed; first compound 0.03162 µM) | relative viability (Adavosertib + Pemetrexed; first compound 0.1 µM) | relative viability (Adavosertib + Pemetrexed; first compound 0.3162 µM)
1 | NCI-H1734 | 0.332 | 0.326 | 0.353 | 0.375 | 0.551 | 0.458 | 0.491 | 0.486 | 0.499 | 0.746 | 0.67 | 0.709 | 0.653 | 0.704 | 0.409 | 0.39 | 0.325 | 0.323
2 | HCC-44 | 0.989 | 1.01 | 1.03 | 0.966 | 0.942 | 0.924 | 0.863 | 1.01 | 0.928 | 0.888 | 0.876 | 0.74 | 0.871 | 0.831 | 0.677 | 0.602 | 0.574 | 0.433
3 | HOP-62 | 0.496 | 0.513 | 0.59 | 0.486 | 0.214 | 0.194 | 0.23 | 0.182 | 0.229 | 1.12 | 1.03 | 0.942 | 0.926 | 1.07 | 0.311 | 0.285 | 0.283 | 0.224
4 | NCI-H3122 | 0.216 | 0.198 | 0.184 | 0.213 | 0.419 | 0.299 | – | 0.463 | 0.476 | 0.898 | 0.569 | – | 0.881 | 0.761 | 0.211 | 0.199 | 0.188 | 0.173
5 | NCI-H2405 | – | 0.492 | 0.555 | 0.58 | 0.674 | 0.686 | 0.745 | 0.816 | 0.721 | 0.842 | 0.794 | 0.74 | 0.647 | 0.801 | – | 1.1 | 0.899 | 1.05
6 | UMC-11 | 0.326 | 0.339 | 0.348 | 0.351 | 0.71 | 0.551 | 0.578 | 0.589 | 0.61 | 1.1 | 0.597 | 0.909 | 1.02 | 0.96 | 0.791 | 0.725 | 0.763 | 0.594
7 | COR-L 105 | 0.374 | 0.419 | 0.415 | 0.444 | 0.691 | 0.723 | 0.644 | 0.66 | 0.719 | 1.15 | 1.11 | 1.03 | 1.3 | 0.985 | 0.976 | 1.07 | 1.07 | 0.916
8 | NCI-H2085 | 0.479 | 0.458 | 0.519 | 0.577 | 0.536 | 0.535 | 0.52 | 0.605 | 0.439 | 1.06 | 0.992 | 0.94 | 1.01 | 1.02 | 0.881 | 0.86 | 0.901 | 0.998
9 | IA-LM | – | – | – | – | – | – | – | – | – | 0.928 | 0.957 | 0.789 | 0.871 | 0.826 | – | – | – | –
10 | NCI-H1792 | – | 0.661 | 0.779 | 0.829 | 0.642 | 0.428 | 0.573 | 0.579 | 0.634 | 0.908 | – | 0.83 | 0.688 | 0.828 | 0.858 | 0.756 | 0.718 | 0.71
11 | LK-2 | 0.7 | 0.937 | 0.879 | 0.761 | 0.261 | – | 0.272 | 0.341 | 0.319 | 1.58 | – | 1.13 | 1.12 | 1.04 | 0.266 | 0.238 | 0.357 | 0.215
12 | NCI-H2009 | 0.195 | 0.2 | 0.258 | 0.215 | 0.412 | 0.331 | 0.398 | 0.447 | 0.385 | 1.25 | 1.32 | 1.15 | 1.2 | 1.14 | 1.03 | 0.987 | 1.04 | 0.775
13 | NCI-H1703 | – | – | – | – | – | – | – | – | – | 0.395 | 0.278 | 0.385 | 0.366 | 0.409 | – | – | – | –
14 | Calu-6 | – | – | – | – | – | – | – | – | – | 1.1 | – | 0.979 | 0.972 | 1.11 | – | – | – | –
15 | NCI-H1648 | 0.311 | 0.29 | 0.219 | 0.244 | – | 0.533 | – | 0.616 | 0.441 | – | – | – | – | – | 0.595 | 0.719 | 0.814 | 0.483
16 | NCI-H1563 | – | – | – | – | – | – | – | – | – | 0.956 | 0.858 | 0.886 | 1 | 0.919 | 0.677 | 0.903 | 0.713 | 0.808
17 | NCI-H522 | 1.02 | 1.1 | 1.21 | 1.06 | 0.724 | 0.763 | 0.608 | 0.684 | 0.558 | – | – | – | – | – | 1.02 | 1.03 | 1.04 | 0.949
18 | NCI-H596 | – | – | – | – | 1.09 | 0.972 | 1.06 | 1.09 | 1.13 | 0.532 | 0.504 | 0.525 | 0.577 | 0.504 | 0.497 | 0.515 | 0.471 | 0.423
19 | NCI-H727 | 0.584 | 0.699 | 0.637 | 0.658 | 0.819 | 0.938 | 0.918 | 0.769 | 0.463 | 0.683 | 0.572 | 0.632 | 0.625 | 0.571 | – | – | – | –
20 | NCI-H2342 | 0.5 | 0.526 | 0.509 | 0.566 | 0.758 | 0.759 | 0.703 | 0.775 | 0.734 | – | – | – | – | – | 0.754 | 0.826 | 0.764 | 0.844
21 | NCI-H2228 | – | 0.746 | 0.62 | 0.545 | – | – | – | – | – | 0.882 | 0.595 | – | 0.815 | 0.676 | – | 0.331 | 0.361 | 0.2
22 | A549 | – | – | – | – | 0.293 | 0.282 | 0.271 | 0.287 | 0.23 | 0.885 | 0.879 | 0.783 | 0.818 | 0.858 | – | – | – | –
23 | CAL-12T | 0.403 | 0.492 | 0.425 | 0.262 | – | – | – | – | – | 1.86 | 1.48 | 1.16 | 1.4 | 1.37 | 1.15 | 1.25 | 1.02 | 0.682
